Values joined by “and” are separate entries in the source; they are usually repeats but may differ in a detail not shown here. Equal values may be shown once.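 Grown in 96-well plates, cells were treated for 48 hours with each compound at five concentrations. Insufficient inhibition: endpoint recorded as highest concentration tested. Here, GI50 denotes the concentration required for 50% inhibition of growth. TGI denotes the concentration required for complete inhibition of growth.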
Columns and labels:
Assay in all cases: NCI anticancer screen, dose series, 48 h
MALME-3M melanoma = system: MALME-3M melanoma
OVCAR-8 ovarian = system: OVCAR-8 ovarian
HT29 colon = system: HT29 colon
KM12 colon = system: KM12 colon
LOX IMVI melanoma = system: LOX IMVI melanoma
SNB-75 CNS = system: SNB-75 CNS
A549 NSCLC = system: A549 NSCLC
ACHN renal = system: ACHN renal
NCI-H460 lung = system: NCI-H460 lung
DU-145 prostate = system: DU-145 prostate

| Structure (SMILES) | TGI (MALME-3M melanoma) | TGI (OVCAR-8 ovarian) | TGI (HT29 colon) | TGI (KM12 colon) | TGI (LOX IMVI melanoma) | TGI (SNB-75 CNS) | TGI (A549 NSCLC) | TGI (ACHN renal) | TGI (NCI-H460 lung) | GI50 (MALME-3M melanoma) | GI50 (KM12 colon) | GI50 (LOX IMVI melanoma) | TGI (DU-145 prostate) | GI50 (NCI-H460 lung) | GI50 (OVCAR-8 ovarian) | GI50 (HT29 colon) | GI50 (A549 NSCLC) | GI50 (ACHN renal) | GI50 (DU-145 prostate) | GI50 (SNB-75 CNS) |
| --- | --- | --- | --- | --- | --- | --- | --- | --- | --- | --- | --- | --- | --- | --- | --- | --- | --- | --- | --- | --- |
| COc1ccc2c(c1)C(=O)c1ccc(OC)cc1C2=S | > 100 µM | > 100 µM | > 100 µM | > 100 µM | > 100 µM | 87.4 µM | > 100 µM | > 100 µM | – | – | – | – | – | – | – | – | – | – | – | – |
| OC1(C23CC4CC(CC(C4)C2)C3)CSCC1(O)C12CC3CC(CC(C3)C1)C2 (stereo unspecified) | > 100 µM | > 100 µM | > 100 µM | > 100 µM | – | > 100 µM | > 100 µM | – | – | – | – | – | – | – | – | – | – | – | – | – |
| Cc1ccc2c(c1)-c1c3c(nn1-c1ccccc1)-c1ccccc1SC3O2 (stereo unspecified) | > 100 µM | > 100 µM | > 100 µM | > 100 µM | > 100 µM | > 100 µM | > 100 µM | > 100 µM | > 100 µM | – | – | – | – | – | – | – | – | – | – | – |
| CC(CN(C)C)/C(=N\Nc1ccccc1)c1ccccc1 (stereo unspecified) | 29.1 µM | > 100 µM | 17.9 µM | 14.4 µM | 4.16 µM | 66.8 µM | 2.4 µM | 2.08 µM | 15.5 µM | – | – | – | – | – | – | – | – | – | – | – |
| C[C@H](OCc1ccccc1)C(=O)N1CCS(=O)(=O)N2CCC[C@@H]2C1=O | > 100 µM | > 100 µM | > 100 µM | > 100 µM | > 100 µM | > 100 µM | > 100 µM | > 100 µM | > 100 µM | – | – | – | – | – | – | – | – | – | – | – |
| CC[C@@]1(O)C(=O)OCc2c1cc1n(c2=O)Cc2cc3cc4c(cc3nc2-1)OCO4 | – | 0.369 µM | – | 0.369 µM | 0.109 µM and 0.0506 µM | – | 0.177 µM and 0.136 µM | – | 0.0876 µM and 0.0232 µM | < 0.0144 µM | 0.0353 µM and < 0.0188 µM | < 0.001 µM | 0.00572 µM | – | – | – | – | – | – | – |
| COc1cc(OC)c2nc(C)c3c(c2c1)SCC3 | 63.8 µM | 35.4 µM | 99.4 µM | > 100 µM | > 100 µM | – | 40.9 µM | 34.5 µM | 54.3 µM | – | – | – | > 100 µM | – | – | – | – | – | – | – |
| C/C(O)=C(/C=N/C(=S)Nc1ccc(S(N)(=O)=O)cc1)C(=O)Nc1ccccc1C | – | > 100 µM | > 100 µM | > 100 µM | 48.8 µM | – | > 100 µM | > 100 µM | > 100 µM | – | – | – | > 100 µM | – | – | – | – | – | – | – |
| CC(=O)Nc1ccc(S(=O)(=O)N/N=C/CN2C(=O)c3ccccc3C2=O)cc1 | > 100 µM | > 100 µM | > 100 µM | > 100 µM | > 100 µM | > 100 µM | > 100 µM | > 100 µM | > 100 µM | – | – | – | – | – | – | – | – | – | – | – |
| O=C1CCCCC1S(=O)(=O)c1ccccc1 (stereo unspecified) | > 100 µM | > 100 µM | > 100 µM | > 100 µM | > 100 µM | > 100 µM | > 100 µM | > 100 µM | > 100 µM | – | – | – | – | – | – | – | – | – | – | – |
| COc1ccc(CCN2CC=Cn3c2nc2ccccc2c3=O)cc1 | – | > 41 µM | 27.4 µM | > 100 µM | > 40.1 µM | – | > 49.1 µM | > 49.2 µM | 14.4 µM | – | 0.0167 µM | 0.0585 µM | > 23.3 µM | 0.0358 µM | 0.054 µM | 0.0319 µM | 0.038 µM | 0.0919 µM | 0.0374 µM | – |
| CSc1nnc(CCC(=O)Nc2c(C)cccc2C)o1 | > 100 µM | > 100 µM | > 100 µM | > 100 µM | > 100 µM | > 100 µM | > 100 µM | – | > 100 µM | – | – | – | – | – | – | – | – | – | – | – |
| NC(=O)CN(CC(N)=O)C(N)=O | > 100 µM | > 100 µM | > 100 µM | > 100 µM | > 100 µM | > 100 µM | > 100 µM | > 100 µM | > 100 µM | – | – | – | – | – | – | – | – | – | – | – |
| NNC(=O)C1CCC(=O)N1S(=O)(=O)c1ccccc1 (stereo unspecified) | > 100 µM | > 100 µM | > 100 µM | > 100 µM | > 100 µM | > 100 µM | > 100 µM | > 100 µM | > 100 µM | – | – | – | – | – | – | – | – | – | – | – |
| CCCCOC(=O)N1CCN(/[N+]([O-])=N/Oc2ccc([N+](=O)[O-])cc2[N+](=O)[O-])CC1 | – | > 100 µM | > 100 µM | 14.5 µM | 5.06 µM | 37.9 µM | 64.2 µM | 7.19 µM | > 100 µM | – | 3.65 µM | 2.27 µM | 12 µM | 4.94 µM | 25.5 µM | 4.67 µM | 21.1 µM | 2.53 µM | 3.35 µM | 21.1 µM |
| C=C1C(O)C2C(=C(CC)C13CC3)C(=O)C(C)(C)C2OC (stereo unspecified) | > 100 µM | > 100 µM | > 100 µM | > 100 µM | > 100 µM | – | > 100 µM | > 100 µM | > 100 µM | > 100 µM | 60.9 µM | 43.1 µM | > 100 µM | 39.3 µM | 53.1 µM | > 100 µM | 44.9 µM | 67.8 µM | 57.9 µM | – |
| Cc1nc(Nc2ccccc2)sc1C(=O)CC(=O)C(=O)Nc1c(C(C)C)cccc1C(C)C | > 100 µM | > 100 µM | > 100 µM | > 100 µM | > 100 µM | – | > 100 µM | > 100 µM | > 100 µM | – | – | – | – | – | – | – | – | – | – | – |
| CCOC(=O)/C(C1=NCCN1)=C(\O)c1ccccc1 | > 100 µM | > 100 µM | > 100 µM | > 100 µM | > 100 µM | – | > 100 µM | > 100 µM | > 100 µM | – | – | – | – | – | – | – | – | – | – | – |
| CCOc1cc2c(C(=O)CC)c(O)ccc2o1 | > 100 µM | > 100 µM | > 100 µM | > 100 µM | > 100 µM | > 100 µM | > 100 µM | > 100 µM | > 100 µM | – | – | – | – | – | – | – | – | – | – | – |
| CC(=O)[CH-]C(=O)c1ccccc1.CC(=O)[CH-]C(=O)c1ccccc1.CC[O-].CC[O-].[Hf+4] | > 100 µM | > 100 µM | > 100 µM | > 100 µM | > 100 µM | > 100 µM | > 100 µM | > 100 µM | > 100 µM | > 100 µM | > 100 µM | > 100 µM | – | > 100 µM | > 100 µM | > 100 µM | > 100 µM | > 100 µM | – | > 100 µM |
